Like-named read-outs stand apart in the source and are kept apart here.
How the values were obtained:
[1] = system: CML cell lines K562, KYO.1 and Lama 84; assay: Apoptosis in CML cell lines, cytospin and staining; assay type: cell-based, human; conditions: 24 hours (10 μM elsewhere in the source)
Cytochrome C = Cytochrome C Western blot, CML cell cytosol; assay type: cell-based, human; conditions: K562, KYO.1, Lama 84; 16 hour treatment
Experimental: Cells (15×10^6) were harvested by centrifugation at 1800 g for 10 min at 4° C. After being washed once with ice-cold phosphate-buffered saline, the cell pellet was suspended in 100 μl of ice-cold buffer A (20 mM Hepes, pH 7.5, 10 mM KCl, 1.5 mM MgCl2, 1 mM sodium EDTA, 1 mM sodium EGTA, 1 mM dithiotreitol and 0.1 mM phenylmethylsulfonyl fluoride) supplemented with protease inhibitors (5 μg/ml pepstatin A, 10 μg/ml leupeptin and 2 μg/ml of aprotinin). The cells were left to sit on ice for 15 min and then centrifuged at 20,000 g for 20 min. The resulting supernatant was stored at −70° C. until measurement of cytochrome C. Protein determination was measured by using the Bradford assay. Equal amounts of protein were resolved by SDS-polyacrylamide gel electrophoresis in 15% gels and transferred onto nitro-cellulose. Membranes were blocked with phosphate-buffered saline/5% (w/v) dry milk and probed with anti-cytochrome C antibody. Blots were washed, incubated with goat anti-mouse IgG peroxidase conjugate and developed by ECL according to the manufacturer's recommendations.

NFκB = assay: NF kappa B binding activity, HL-60 nuclear extracts; assay type: cell-based, human; conditions: HL-60 cells
Experimental: Cells were fractionated, and nuclear extracts were prepared as described by Stylianou et al. (1992). Briefly, cells were added to ice-cold phosphate-buffered saline and centrifuged using a swing out rotor at 136×g. They were washed in buffer A (10 mM Hepes, pH 7.9, 1.5 mM MgCl2, 10 mM KCl, […] [PMSF]) and centrifuged at 10000×g for 10 min. They were treated with buffer A+0.1% (vol/vol) Nonidet P40 on ice for 10 min. They were then centrifuged at 10000×g for 10 min and the pellet was treated with buffer C (20 mM Hepes, pH 7.9, 420 mM NaCl, 1.5 mM MgCl2, 2 mM EDTA, 20% [vol/vol] glycerol, 0.5 mM PMSF) on ice for 15 min. This material was centrifuged at 10000×g for 10 min and the supernatant was added to 75 u l of buffer D [10 mM Hepes, pH 7.9, 50 mM KCl, 0.2 mM EDTA, 20% (vol/vol) glycerol, 0.5 mM PMSF] per sample. The protein concentration in this crude nuclear extract was determined using the method of Bradford (1976). Protein (4 μg) was incubated with 10000 cpm of a ^32P-labelled oligonucleotide, containing the consensus sequence for NF kappa B, with binding buffer [40% (vol/vol) glycerol, 1 mM EDTA, 10 mM Tris, pH 7.5, 100 mM NaCl, 0.1 mg/ml nuclease free BSA] and 2 μg of poly(dI-dC) at room temperature for 30 min. Samples were resolved on a 5% native polyacrylamide gel which was subsequently dried and autoradiographed at −70° C. overnight.

caspase 3-like proteases = assay type: cell-based, human; conditions: HL-60 cells
Experimental: (§1) Cells (5×10^6 cells) were harvested by centrifugation, washing in ice-cold phosphate-buffered saline and the pellets resuspended in 200 μl of harvesting buffer (20 mM Hepes, pH 7.5, 10% (w/v) sucrose, 0.1% (w/v) CHAPS, 2 mM dithiotreitol, 0.1% (v/v) Nonidet NP40, 1 mM sodium EDTA and 1 mM phenylmethylsulfonyl fluoride) supplemented with protease inhibitors (1 μg/ml pepstatin A and 1 μg/ml leupeptin). Following incubation on ice for 10 min, samples were passed up and down 10 times through a 21 gauge needle. Following a further incubation on ice for 10 min the homogenates were centrifuged at 20,000 g for 20 min and the resulting supernatants used to measure caspase 3 activity. This enzyme activity was determined by a fluorometric assay using the substrate Ac-DEVD-AMC, which is cleaved by caspase 3 to release the fluorescent leaving group, amino-4-methyl coumarin (AMC). Enzyme extracts (50 μg) were incubated with 100 mM Hepes, pH 7.5, containing 10% (w/v) sucrose, 0.1% (w/v) CHAPS, 10 mM dithiotreitol and 20 μM substrate in a total reaction volume of 3 ml. Following incubation for 60 min at 25° C., fluorescence was monitored continuously using a spectrofluorimeter (excitation wavelength 380 nm, emission wavelength 460 nm). The amount of AMC released was determined by comparison with a standard curve generated with known amounts of AMC.

caspase 3 = assay type: cell-based, human
Experimental: as §1

Jurkat cells = assay type: cell-based, human; conditions: 1 hour, then etoposide 16 hours
HL-60 cells = assay: Apoptosis in HL-60 cells, cytospin and Rapi-Diff staining
JNK1 and JNK2 = assay: Western blot of JNK activation in HL-60 cells; assay type: cell-based, human
[2] = system: CEM (T lymphoblastoid) cells; assay: Apoptosis in CEM cells (neo and Bcl-2 overexpressing); assay type: cell-based, human
MCF-7 cells = assay: Apoptosis in MCF-7 cells; assay type: cell-based, human
Experimental: MCF-7 cells were maintained in minimum essential medium supplemented with non-essential amino acids (1% v/v), glutamine (1 mM), FCS (10%) and sub-cultured by the protocol described for Hela cells.
In all experiments performed, cells were seeded at a density of 3×10^5 cells/ml into 24-well plates (1 ml well) and immediately treated with the indicated compound. All drugs were diluted from freshly prepared ethanol stock solutions. The final concentration of ethanol in the wells was always 1% (vol/vol); a concentration which by itself had no effect on the cells tested. Following exposure to the appropriate drug, the cells (100 μL) were cytospun onto glass slides pre-coated with poly-L-lysine using a Cytospin 3™ cytocentrifuige (Shandon). They were then stained using the Rapi-Diff kit (eosinm ethylene blue) under the conditions described by the manufacturer. The percent apoptosis and necrosis was determined by counting approximately 300 cells under a light microscope with the aid of a graticule inserted into the eyepiece. At least 3 fields of view per slide, with an average of approximately 100 cells per field, were counted.

[3] = HL-60 cells and the 3 CML cell lines

## CN(C)C(=O)OC1=C(c2cccc3ccccc23)Oc2ccccc2-n2cccc21 [PBOX-6, 7-((Dimethylcarbamoyl)oxy)-6-(1-naphthyl)pyrrolo[2,1-d][1,5]benzoxazepine]
[1]
  cells that had undergone apoptosis: approximately 50%
Cytochrome C
  cytochrome C levels in the cytosol: unchanged
NFκB
  effect on NFκB: failed to affect NFκB expression
Caspase 3-like proteases
  time at which caspase 3-like protease activity became evident: 6 h
Caspase 3-like proteases; DEVD-AMC substrate
  activation of caspase 3-like proteases: dose-dependent activation of caspase 3-like proteases
Caspase 3; K562 and Lama 84, 16 hours
  caspase 3 activation: activated
Caspase 3; KYO.1 cells
  caspase 3 activation: not detected
Jurkat cells
  effect of pretreatment on etoposide induced apoptosis: does not protect against etoposide induced apoptosis
HL-60 cells; HL-60 cells
  apoptosis below a final concentration of 5 μM: negligible
  time at which morphological signs of apoptosis became apparent: 6 hours
HL-60 cells; [3]
  concentration at which apoptosis was first observed: 5 µM
  time after which apoptosis was first observed: 4 h
HL-60 cells; HL-60 cells, 10 μM, 16 hours
  degree of necrosis: negligible
HL-60 cells; Homo sapiens, HL-60, 16 h, read-out: % Apoptosis
  cytotoxicity at 10 µM: 38.6 ± 4.6%
JNK1 and JNK2
  activation of JNK: transient activation of 2 JNK isoforms
  time of peak JNK activation: 1 h
[2]; Bcl-2 overexpressing
  induction of apoptosis in CEM cells overexpressing Bcl-2: dose-dependent induction of apoptosis
[2]; normal (neo) CEM
  induction of apoptosis in normal CEM cells: dose-dependent induction of apoptosis
MCF-7 cells
  concentration at which morphological features of apoptosis were first observed: 5 μM
